These results are taken from PMC9909315, “SY-707, an ALK/FAK/IGF1R inhibitor, suppresses growth and metastasis of breast cancer cells” (Acta Biochimica et Biophysica Sinica, 2022).

For one experiment, the target named is FAK (Homo sapiens, UniProt Q05397). In words: HTRF kinase enzyme assay. Particulars: ATP at Km. Format: biochemical.
Experiment [1] relates to phosphorylation of FAK at Tyr397. The experiment can be described thus: Western blot of FAK phosphorylation in MCF-7 cells. In kind it is cell-based. Particulars: MCF-7, 1 h treatment. As for the experimental part:
(§1) Equal amounts of cell lysates were loaded onto 10% SDS-PAGE gel and separated by electrophoresis. Separated proteins were then electro-transferred onto polyvinylidene fluoride (PVDF) membranes (Millipore, Bedford, USA). After being blocked with Tris-buffered saline containing 0.1% Tween-20 (TBST) and 5% bovine serum albumin (BSA), the membranes were incubated with primary antibodies at room temperature for 2 hours or at 4°C, then washed with TBST, followed by treatment with horseradish peroxidase (HRP)-conjugated goat anti-rabbit IgG secondary antibody at room temperature for another 1 h. The targeted protein bands were visualized using an enhanced chemiluminescence (ECL) plus system (Thermo Fisher Scientific). Primary antibodies against phospho-FAK (3283, 1:1000 dilution), phospho-ERK (4377, 1:2000 dilution), phospho-AKT (4060, 1:2000 dilution), FAK (3285, 1:1000 dilution), AKT (6703, 1:1000 dilution) and β-Actin (5125, 1:10,0000 dilution) were purchased from Cell Signaling Technology (Beverly, USA) and the HRP-conjugated goat anti-rabbit IgG (ZDR-5306, 1:10,000 dilution) was purchased from Jackson (West Grove, USA ).
Cells were cultured in 6-well plates and treated with the indicated concentrations of SY-707 for 1 h before stimulation with or without 100 ng/mL IGF1 for 10 min. Control cells received the drug vehicle with 0.1% DMSO. […]
(In general: In western blotting, separated proteins are transferred to a membrane and probed.)

The target in a further experiment is IGF1R (Homo sapiens, UniProt P08069). The experiment can be described thus: HTRF kinase enzyme assay. Format: biochemical. Conditions: ATP at Km. As for the experimental part: (§2) Homogeneous time-resolved fluorescence (HTRF) assay was performed to analyze kinase enzyme activity and compound potency using HTRF ® KinEASE ^TM-TK kit (Cisbio Bioassays, Shanghai, China). Compound SY-707 was serially diluted by 3 folds from 1 mM stock solution in DMSO, and 4 μL of the diluted solution of the compounds was added to 96 μL of reaction buffer (50 mM HEPES, pH 7.0, 0.1 mM Na 3VO 4, 0.01% BAS, 5 mM MgCl 2, 1 mM DTT), then 2.5 μL of 4× compound solution and 5 μL of 2× kinases solution were added to a 384-well plate (OptiPlate-384; PerkinElmer, Wellesley, USA ). The resulted solutions were briefly mixed, centrifuged and incubated for 5 min. Finally, 2.5 μL of 4× ATP/TK peptide (ATP at K m for each kinase) solution was added to the reaction system to initiate the reaction. The enzymatic reaction was carried out for 60-120 min at 23°C, then terminated by addition of 5 μL of detection solution containing TK antibody-cryptate and 5 μL of Streptravidin-XL-665. The mixture was incubated for additional 1 h at 23°C. The fluorescent signals were measured with an EnVision multilabel plate reader (PerkinElmer). IC 50 values of the compounds were calculated using the GraFit software (Version 6.0) and presented as the mean of three independent experiments performed in duplicate.
For orientation: Time-resolved FRET reads energy transfer from a long-lived donor to a nearby acceptor.

The target in the next experiment is LTK (Homo sapiens, UniProt P29376). In words: HTRF kinase enzyme assay. In kind it is biochemical. Particulars: ATP at Km. As for the experimental part: as §2
Sequence of LTK (P29376 17-864): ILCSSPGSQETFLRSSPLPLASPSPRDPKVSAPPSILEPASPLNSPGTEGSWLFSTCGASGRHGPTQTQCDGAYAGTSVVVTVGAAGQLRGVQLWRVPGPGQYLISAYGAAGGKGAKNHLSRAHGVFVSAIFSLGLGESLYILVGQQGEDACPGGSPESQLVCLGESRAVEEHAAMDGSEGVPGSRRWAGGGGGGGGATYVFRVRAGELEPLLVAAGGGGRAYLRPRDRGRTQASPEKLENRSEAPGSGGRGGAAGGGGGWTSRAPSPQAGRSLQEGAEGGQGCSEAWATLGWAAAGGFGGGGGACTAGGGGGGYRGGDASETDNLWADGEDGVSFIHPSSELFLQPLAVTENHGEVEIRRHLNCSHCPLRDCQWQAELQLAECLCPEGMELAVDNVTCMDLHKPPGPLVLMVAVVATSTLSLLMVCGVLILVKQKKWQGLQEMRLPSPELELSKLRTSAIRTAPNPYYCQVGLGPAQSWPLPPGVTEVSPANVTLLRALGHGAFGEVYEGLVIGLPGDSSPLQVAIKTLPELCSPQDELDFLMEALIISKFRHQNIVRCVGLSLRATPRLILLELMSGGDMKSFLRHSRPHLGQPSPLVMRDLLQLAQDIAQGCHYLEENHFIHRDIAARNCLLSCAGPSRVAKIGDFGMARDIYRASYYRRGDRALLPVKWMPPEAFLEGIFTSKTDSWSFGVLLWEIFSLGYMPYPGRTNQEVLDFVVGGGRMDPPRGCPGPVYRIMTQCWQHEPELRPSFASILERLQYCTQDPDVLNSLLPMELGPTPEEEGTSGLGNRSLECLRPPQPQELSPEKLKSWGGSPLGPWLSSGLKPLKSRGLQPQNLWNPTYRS
The next experiment deals with FER (Homo sapiens, UniProt P16591). In words: HTRF kinase enzyme assay. In kind it is biochemical. Conditions: ATP at Km. On the procedure:
as §2

For the next experiment, the target named is PYK2 (Homo sapiens, UniProt Q14289). The experiment can be described thus: HTRF kinase enzyme assay. In kind it is biochemical. Particulars: ATP at Km. On the procedure:
as §2

In another experiment the target is ALK (Homo sapiens, UniProt Q9UM73). The experiment can be described thus: HTRF kinase enzyme assay. Conditions: ATP at Km. Format: biochemical. As for the experimental part:
as §2

A further experiment concerns the target IRK (Homo sapiens, UniProt P06213). In words: HTRF kinase enzyme assay. In kind it is biochemical. Conditions: ATP at Km. On the procedure:
as §2

A further experiment concerns the target ACK (Homo sapiens, UniProt Q07912). The experiment can be described thus: HTRF kinase enzyme assay. Conditions: ATP at Km. In kind it is biochemical. As for the experimental part:
as §2

For another experiment, the target named is FES (Homo sapiens, UniProt P07332). The experiment can be described thus: HTRF kinase enzyme assay. In kind it is biochemical. Conditions: ATP at Km. On the procedure: as §2
The test system of another experiment is T47D cells. In words: Western blot for cleaved PARP. Particulars: various concentrations, 24 h. Format: cell-based. As for the experimental part: as §1
(§3) Cells were cultured and treated with SY-707 under the indicated concentrations (0.01, 0.1 and 1 μM respectively) for 24 h, then stained with Annexin-V and 7-AAD for cell apoptosis analysis by Guava flow cytometry.

The subject of experiment [2] is MCF-7 cells. In words: Western blot for cleaved PARP. In kind it is cell-based. Particulars: MCF-7, various concentrations, 24 h. On the procedure: as §1, §3
In experiment [3] the test system is MCF-7 cells. In words: PE Annexin V/7-AAD apoptosis flow cytometry. In kind it is cell-based. Particulars: MCF-7, 0.01, 0.1 and 1 μM, 24 h. On the procedure:
MCF-7 cells were treated with 0.1% DMSO (control) or with SY-707 solution at indicated concentrations for 24 h at 37°C, then the cells were harvested by centrifugation at 350 g and washed twice with PBS. Cell apoptosis was determined using the PE Annexin V Apoptosis Detection kit (BD Biosciences, San Jose, USA) following the manufacture’s guides. Breifly, cells were resuspended with 100 μL of binding buffer containing Annexin V and 7-AAD. After 15 min of incubation at room temperature in the dark, 400 μL of binding buffer was added to the mixture and the cells were analyzed with a Guava flow cytometer (Millipore). Cell cycle arrest was evaluated by incorporation of propidium (PI; Sigma-Aldrich, St Louis, USA) into the permeablized cells. After being treated with DMSO or compounds for 24 h, cells were harvested, washed twice with cold PBS, fixed with ice-cold 70% ethanol, followed by a secondary staining step with staining buffer (0.25 mg/mL RNase, 0.025 mg/mL PI, in PBS) for 1 h at 37°C. Compound regulation of cell-cycle was analyzed using the Guava flow cytometer. Data were analyzed with FlowJo software.
A general note: A flow cytometer gives signals particle by particle.

For experiment [4], the system named is phosphorylation of Pyk2 at Tyr402. In words: Western blot of Pyk2 phosphorylation in T47D cells. Conditions: 1 h treatment. In kind it is cell-based. On the procedure:
Equal amounts of cell lysates were loaded onto 10% SDS-PAGE gel and separated by electrophoresis. Separated proteins were then electro-transferred onto polyvinylidene fluoride (PVDF) membranes (Millipore, Bedford, USA). After being blocked with Tris-buffered saline containing 0.1% Tween-20 (TBST) and 5% bovine serum albumin (BSA), the membranes were incubated with primary antibodies at room temperature for 2 hours or at 4°C, then washed with TBST, followed by treatment with horseradish peroxidase (HRP)-conjugated goat anti-rabbit IgG secondary antibody at room temperature for another 1 h. The targeted protein bands were visualized using an enhanced chemiluminescence (ECL) plus system (Thermo Fisher Scientific). […]
Figure4 Inhibitory effects of SY-707 on the phosphorylation of FAK(A,B) Concentration-dependent inhibition of SY-707 on phosphorylation of FAK in T47D (A) and MCF-7 (B) cells. […] Cell lysates were analyzed by western blot analysis using specific antibodies against p-FAK, p-Pyk2, p-AKT and p-ERK respectively. […] Cell lysates were analyzed by western blot analysis using specific antibodies against p-IGF1R, p-STAT3, p-AKT and p-ERK respectively.

Sequence of PYK2 (Q14289 whole entry): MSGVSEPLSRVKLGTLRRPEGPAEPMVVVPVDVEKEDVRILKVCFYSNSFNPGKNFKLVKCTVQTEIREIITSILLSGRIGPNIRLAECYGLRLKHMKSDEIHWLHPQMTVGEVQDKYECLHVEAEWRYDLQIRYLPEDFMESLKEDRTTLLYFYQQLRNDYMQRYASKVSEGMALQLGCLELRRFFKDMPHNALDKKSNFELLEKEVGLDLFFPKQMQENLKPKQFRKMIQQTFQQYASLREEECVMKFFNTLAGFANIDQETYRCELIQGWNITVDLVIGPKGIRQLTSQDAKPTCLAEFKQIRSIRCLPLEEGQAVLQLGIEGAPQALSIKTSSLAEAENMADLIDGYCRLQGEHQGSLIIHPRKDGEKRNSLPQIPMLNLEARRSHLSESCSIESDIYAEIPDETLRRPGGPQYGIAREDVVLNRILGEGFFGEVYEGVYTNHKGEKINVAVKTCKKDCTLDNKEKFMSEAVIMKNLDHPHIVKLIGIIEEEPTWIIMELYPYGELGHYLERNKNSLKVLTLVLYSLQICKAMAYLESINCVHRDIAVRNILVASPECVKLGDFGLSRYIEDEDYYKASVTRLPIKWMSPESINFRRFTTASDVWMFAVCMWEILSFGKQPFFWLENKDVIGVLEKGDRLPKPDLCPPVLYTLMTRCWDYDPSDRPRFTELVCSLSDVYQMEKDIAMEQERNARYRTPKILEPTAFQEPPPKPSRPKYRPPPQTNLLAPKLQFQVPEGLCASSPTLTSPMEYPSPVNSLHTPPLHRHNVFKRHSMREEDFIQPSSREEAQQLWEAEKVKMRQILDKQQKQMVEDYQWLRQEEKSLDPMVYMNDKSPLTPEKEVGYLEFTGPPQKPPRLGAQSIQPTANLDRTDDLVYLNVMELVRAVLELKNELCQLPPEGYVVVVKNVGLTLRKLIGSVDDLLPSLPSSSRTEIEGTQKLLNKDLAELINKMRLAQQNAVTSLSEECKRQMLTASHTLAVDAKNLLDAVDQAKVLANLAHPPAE
Sequence of ACK (Q07912 whole entry): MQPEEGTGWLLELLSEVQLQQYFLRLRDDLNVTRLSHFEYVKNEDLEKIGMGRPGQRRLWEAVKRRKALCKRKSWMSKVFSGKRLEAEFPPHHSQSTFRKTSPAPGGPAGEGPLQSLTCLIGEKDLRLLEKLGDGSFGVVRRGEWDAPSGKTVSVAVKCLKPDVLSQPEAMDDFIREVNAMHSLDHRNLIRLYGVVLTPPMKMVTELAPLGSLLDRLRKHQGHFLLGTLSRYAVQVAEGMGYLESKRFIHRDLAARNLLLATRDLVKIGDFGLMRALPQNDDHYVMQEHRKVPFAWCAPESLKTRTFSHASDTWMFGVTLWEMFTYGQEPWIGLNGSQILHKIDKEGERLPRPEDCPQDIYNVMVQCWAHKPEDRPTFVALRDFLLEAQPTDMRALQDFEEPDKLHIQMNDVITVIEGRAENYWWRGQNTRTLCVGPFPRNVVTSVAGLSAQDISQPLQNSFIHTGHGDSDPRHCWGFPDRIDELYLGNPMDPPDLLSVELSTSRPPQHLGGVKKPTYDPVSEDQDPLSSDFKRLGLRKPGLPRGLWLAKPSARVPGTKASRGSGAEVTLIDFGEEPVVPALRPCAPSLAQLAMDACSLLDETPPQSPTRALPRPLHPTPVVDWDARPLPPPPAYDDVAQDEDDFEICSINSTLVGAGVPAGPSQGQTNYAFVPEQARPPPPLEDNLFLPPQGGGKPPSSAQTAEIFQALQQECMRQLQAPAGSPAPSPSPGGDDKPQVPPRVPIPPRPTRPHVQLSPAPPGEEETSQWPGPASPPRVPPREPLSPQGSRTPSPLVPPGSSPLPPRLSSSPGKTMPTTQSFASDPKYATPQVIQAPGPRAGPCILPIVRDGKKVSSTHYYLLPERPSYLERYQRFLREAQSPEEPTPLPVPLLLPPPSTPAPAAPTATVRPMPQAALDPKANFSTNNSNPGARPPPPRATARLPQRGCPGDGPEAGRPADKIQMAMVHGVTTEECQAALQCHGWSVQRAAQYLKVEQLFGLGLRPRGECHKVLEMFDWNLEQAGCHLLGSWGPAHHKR
Sequence of ALK (Q9UM73 19-1620): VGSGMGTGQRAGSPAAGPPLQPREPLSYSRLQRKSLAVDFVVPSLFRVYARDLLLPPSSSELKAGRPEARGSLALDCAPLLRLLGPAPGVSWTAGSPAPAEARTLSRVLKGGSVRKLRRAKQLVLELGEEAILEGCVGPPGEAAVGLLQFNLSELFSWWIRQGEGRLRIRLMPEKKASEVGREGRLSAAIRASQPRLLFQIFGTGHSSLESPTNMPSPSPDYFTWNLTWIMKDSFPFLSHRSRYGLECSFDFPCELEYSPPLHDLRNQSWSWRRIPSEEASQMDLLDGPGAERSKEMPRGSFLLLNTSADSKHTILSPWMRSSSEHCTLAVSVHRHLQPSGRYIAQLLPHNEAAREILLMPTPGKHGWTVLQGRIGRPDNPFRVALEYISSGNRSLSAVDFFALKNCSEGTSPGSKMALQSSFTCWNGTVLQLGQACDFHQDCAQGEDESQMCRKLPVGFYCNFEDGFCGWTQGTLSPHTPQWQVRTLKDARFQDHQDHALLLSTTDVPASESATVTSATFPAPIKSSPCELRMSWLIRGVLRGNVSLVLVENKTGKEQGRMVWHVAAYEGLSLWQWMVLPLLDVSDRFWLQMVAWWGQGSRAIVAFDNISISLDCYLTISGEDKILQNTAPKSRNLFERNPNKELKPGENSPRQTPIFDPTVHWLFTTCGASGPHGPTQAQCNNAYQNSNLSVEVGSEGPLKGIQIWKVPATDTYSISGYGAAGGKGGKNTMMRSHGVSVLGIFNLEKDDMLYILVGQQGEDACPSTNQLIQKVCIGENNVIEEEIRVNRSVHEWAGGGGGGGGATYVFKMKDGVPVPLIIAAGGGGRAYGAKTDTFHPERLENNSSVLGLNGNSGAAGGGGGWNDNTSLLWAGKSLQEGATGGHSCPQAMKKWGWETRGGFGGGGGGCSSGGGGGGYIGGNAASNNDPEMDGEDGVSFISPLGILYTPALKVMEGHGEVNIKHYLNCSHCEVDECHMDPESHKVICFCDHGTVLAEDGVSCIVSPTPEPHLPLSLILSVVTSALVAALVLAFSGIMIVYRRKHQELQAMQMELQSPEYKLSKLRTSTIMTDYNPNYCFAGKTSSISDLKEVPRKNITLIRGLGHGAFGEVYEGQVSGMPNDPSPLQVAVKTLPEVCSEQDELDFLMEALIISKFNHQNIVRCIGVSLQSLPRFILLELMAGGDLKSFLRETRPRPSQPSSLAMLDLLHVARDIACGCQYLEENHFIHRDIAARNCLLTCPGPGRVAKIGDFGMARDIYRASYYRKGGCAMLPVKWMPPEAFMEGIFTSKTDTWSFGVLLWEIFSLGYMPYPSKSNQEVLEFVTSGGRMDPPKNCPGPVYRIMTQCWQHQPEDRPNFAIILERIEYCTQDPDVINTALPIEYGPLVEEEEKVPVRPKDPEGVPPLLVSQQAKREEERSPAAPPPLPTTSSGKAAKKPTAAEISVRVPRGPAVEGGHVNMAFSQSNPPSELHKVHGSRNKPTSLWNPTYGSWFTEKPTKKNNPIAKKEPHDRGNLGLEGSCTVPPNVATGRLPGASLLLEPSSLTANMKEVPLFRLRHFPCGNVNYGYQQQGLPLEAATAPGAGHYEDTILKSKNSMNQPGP

The IC50 is the concentration needed to halve the response being measured. Read a high IC50 as lower potency. `COc1cc(N2CCC(N3CCN(C)CC3)CC2)ccc1Nc1nc2c(c(Nc3ccccc3S(=O)(=O)NC(C)C)n1)CCN2` [SY-707, N-isopropyl-2-((2-((2-methoxy-4-(4-(4-methylpiperazin-1-yl)piperidin-1-yl)phenyl)amino)-6,7-dihydro-5H-pyrrolo[2,3-d]pyrimidin-4-yl)amino)benzenesulfonamide]: the IC50 against FAK came out at 1.6 ± 0.5 nM; at IGF1R it was 10.6 ± 0.58 nM; against LTK, 1.9 ± 0.18 nM; against FER, 52.3 ± 2.3 nM; on PYK2 it was 2.4 ± 0.8 nM; against ALK, 2.4 nM. Moreover, the IC50 turned out to be 7.9 ± 0.3 nM against IRK, 28.7 ± 3.5 nM against ACK and 81.8 ± 19 nM at FES. The “phosphorylation of FAK at Tyr397” value in experiment [1] is reported as “dose-dependently suppressed”. The “cleaved PARP” value in the experiment on T47D cells and in the experiment with MCF-7 cells [2] was “markedly detected” in each case. Further, the Late apoptosis entry in the experiment with MCF-7 cells [3] was “dose-dependently induced”. Also, in experiment [4], the “phosphorylation of Pyk2 at Tyr402” value is given as “dose-dependently suppressed”.
